Test results as given in patent US12025619B2, “Methods and systems for detecting prostaglandins by LC-MS/MS” (Laboratory Corporation of America Holdings, priority 2020, dated 2024).
“And” between values parts separate entries of the source, which are not always exact repeats. Equal values may be shown once.

What was measured:
human ovarian tumor cell = settings: read-out: IC50, inhibition of human ovarian tumor cell proliferation; cited from earlier work
[1] = Autosampler stability, urine assay; assay type: physicochemical; settings: human urine assay, stored refrigerated for up to 3 days and 8 hours
Procedure: Autosampler stability. […] To validate autosampler stability a batch containing two sets of calibrators and QCs was processed as normal. After completion of assay processing the first set of calibrators, QCs, and normal urines was injected and analyzed. After analysis the assay batch was stored refrigerated in the autosampler prior to reinjection of the first set of samples and first time injection of the second set of calibrators and QCs. The 96-well plates containing the processed assay were stored refrigerated in the autosampler for approximately 3 days, 8 hours, and 36 minutes before injection was completed for all samples. Post-storage recoveries were based on target concentrations for the stored, first time injection samples. Reinjected samples were compared to initial injection results to determine recoveries. Autosampler study results met acceptance criteria. […] Assay batches stored refrigerated for up to 3 days and 8 hours were stable and suitable for first time injection or re-injection to determine Prostaglandin D2 concentrations in human urine.

[2] = Short-term and freeze/thaw stability in human serum; assay type: physicochemical; settings: for Mean concentration at stability time point / Measured Concentration (replicates): Donors 1-3; for Measured Concentration (replicates): human serum
Procedure: Serum samples were collected into red top tubes and frozen immediately. Specimens were stored according to the following conditions: • Short Term Storage • Serum Frozen (≤−10° C. and ≤−55° C.): 7 days • Serum Refrigerated (2-8° C.): Strictly frozen storage.
Short-term and freeze/thaw stability. Sample stability was confirmed by testing human serum from three individual donors that was stored at each of the different conditions likely to be encountered in sample handling and laboratory analysis. […] An additional set of the freshly collected serum underwent up to 6 freeze/thaw cycles prior to stability testing. All serum stability samples and baseline stored samples were tested with freshly prepared calibrators. All testing was performed in triplicate.

[3] = Short-term and freeze/thaw stability of PGD2 in urine; assay type: physicochemical, human
Procedure: Urine samples were collected into plastic containers. Specimens were stored according to the following conditions: • Short Term Storage • Urine Frozen (≤−10° C. and ≤−55° C.): 8 days • Urine Refrigerated (2-8° C.): 3 days • Urine Room Temperature (15-30° C.): 3 days • Urine Freeze/Thaw (≤−10° C.): 6 Cycles • Long Term Storage • Urine Frozen (≤−10° C.): Stability testing in process • Shipping Conditions: • Urine Frozen (≤−10° C.):—on dry ice PGD2 was stable for at least 3 days at 4° C. and at room temperature and 8 days frozen (≤−10° C. or ≤−55° C.). PGD2 was stable for at least 6 freeze-thaw cycles (≤−10° C. or ≤−55° C.). [table]

[4] = Autosampler stability, serum assay; assay type: physicochemical; settings: human serum assay, stored refrigerated for up to 3 days and 22 hours
Procedure: Autosampler stability. […] To validate autosampler stability a batch containing two sets of calibrators and QCs was processed as normal. After completion of assay processing the first set of calibrators and QCs was injected and analyzed. After analysis the assay batch was stored refrigerated in the autosampler prior to reinjection of the first set of samples and first time injection of the second set of calibrators and QCs. The 96-well plates containing the processed assay were stored refrigerated in the autosampler for approximately 3 days, 22 hours, and 16 minutes before injection was completed for all samples. Post-storage recoveries were based on target concentrations for the stored, first time injection samples. Reinjected samples were compared to initial injection results to determine recoveries. Autosampler study results met acceptance criteria. Assay batches stored refrigerated for up to 3 days and 22 hours are stable and suitable for first time injection or re-injection to determine Prostaglandin D2 concentrations in human serum.

[5] = Calibrator freeze/thaw stability; assay type: physicochemical; settings: for replicates within 85-115% of the target: calibrator matrix
Procedure: Calibrator freeze/thaw stability. Calibrator freeze/thaw stability was examined by analyzing using an accuracy sample made in calibrator amatrix (A4 at 250 pg/mL). The accuracy sample underwent up to 6 freeze/thaw cycles prior to stability testing. Freeze/thaw cycles were performed as per Example 3. Times and temperatures were recorded on the incubation study stability forms. All testing was performed in triplicate. The target concentration for the accuracy sample was used to define acceptable ranges for measured concentrations after freeze/thaw cycles. For the first five freeze/thaw cycles, 100% of replicates were within 85-115% of the target (TABLE 15). For the sixth freeze/thaw cycle >60% of replicates were within 85-115% of the target (TABLE 15). […] Prostaglandin D2 is stable in calibrator matrix after 5 freeze/thaw cycles (6 total thaws).

[6] = Freeze/Thaw (<−10° C.), 1 Cycle (2 Thaws)
[7] = Freeze/Thaw (<−10° C.), 2 Cycles (3 Thaws)
[8] = Refrigerated (2-8° C.), 3.5 Hours

## CCCCC[C@H](O)/C=C/[C@H]1C(=O)C[C@H](O)[C@@H]1C/C=C\CCCC(=O)O [PGD2, prostaglandin D2]
Human ovarian tumor cell
  IC50: 6.8 µM
[1]
  Autosampler stability of processed assay batches: stable
[2]; [6]
  % of replicates within 85-115% of mean at baseline: 100.00%
  Measured Concentration (replicates): 23.2 pg/mL and 95.8 pg/mL and 52.9 pg/mL and 21.1 pg/mL and 107 pg/mL (2×) and 52.4 pg/mL and 23.4 pg/mL and 60.5 pg/mL
[2]; [7]
  % of replicates within 85-115% of mean at baseline: 77.78%
  Measured Concentration (replicates): 22.1 pg/mL and 93.3 pg/mL and 19.4 pg/mL and 51.4 pg/mL and 19.7 pg/mL and 92.0 pg/mL and 51.2 pg/mL
[2]; Freeze/Thaw (<−10° C.), 3 Cycles (4 Thaws)
  % of replicates within 85-115% of mean at baseline: 0.00%
[2]; Freeze/Thaw (<−10° C.), 6 Cycles (7 Thaws)
  % of replicates within 85-115% of mean at baseline: 0.00%
[2]; Frozen (<−55° C.), 7 Days
  % of replicates within 85-115% of mean at baseline: 100.00%
  Measured Concentration (replicates): 24.5 pg/mL (3×) and 119 pg/mL and 65.7 pg/mL and 121 pg/mL and 66.8 pg/mL and 122 pg/mL and 67.9 pg/mL
[2]; Frozen (≤−10° C.), 7 Days
  % of replicates within 85-115% of mean at baseline: 100.00%
  Measured Concentration (replicates): 23.3 pg/mL (2×) and 101 pg/mL and 53.8 pg/mL and 113 pg/mL (2×) and 57.9 pg/mL and 24.2 pg/mL and 62.3 pg/mL
[2]; Refrigerated (2-8° C.), 1 Day
  % of replicates within 85-115% of mean at baseline: 0.00%
[2]; Refrigerated (2-8° C.), 3 Days
  % of replicates within 85-115% of mean at baseline: 0.00%
  Mean concentration at stability time point: 3.83 pg/mL and 4.93 pg/mL and 3.33 pg/mL
[2]; [8]
  % of replicates within 85-115% of mean at baseline: 88.89%
  Measured Concentration (replicates): 103 pg/mL and 57.9 pg/mL and 20.9 pg/mL and 107 pg/mL and 57.6 pg/mL and 19.9 pg/mL and 93.5 pg/mL and 54.7 pg/mL
[2]; Refrigerated (2-8° C.), 7 Hours
  % of replicates within 85-115% of mean at baseline: 0.00%
[2]; Room Temp (15-30° C.), 1 Day
  % of replicates within 85-115% of mean at baseline: 0.00%
  Mean concentration at stability time point: 6.95 pg/mL and 4.42 pg/mL and 4.22 pg/mL
[2]; Room Temp (15-30° C.), 3 Days
  % of replicates within 85-115% of mean at baseline: 0.00%
  Mean concentration at stability time point: 9.17 pg/mL and 6.27 pg/mL and 5.78 pg/mL
[2]; Room Temp (15-30° C.), 3.5 Hours
  % of replicates within 85-115% of mean at baseline: 0.00%
[2]; Room Temp (15-30° C.), 7 Hours
  % of replicates within 85-115% of mean at baseline: 0.00%
[2]; frozen and refrigerated serum
  Short-term and freeze/thaw stability study result: did meet acceptance criteria
[2]; day of collection, time 0
  Measured Concentration (replicates): 21.9 pg/mL and 104 pg/mL and 60.4 pg/mL and 22.0 pg/mL and 107 pg/mL and 59.1 pg/mL and 24.7 pg/mL and 111 pg/mL and 55.6 pg/mL
[2]; serum stored at room temperature
  Short-term stability study result: did not meet acceptance criteria
[3]; 4° C.
  stable for at least (time): at least 3 days
[3]; frozen (≤−10° C. or ≤−55° C.)
  stable for at least (time): ≥ 8 days
[3]; room temperature
  stable for at least (time): at least 3 days
[3]; ≤−10° C. or ≤−55° C.
  stable for at least (freeze-thaw cycles): at least 6 freeze-thaw cycles
[4]
  Autosampler stability of processed assay batches: stable
[5]; accuracy sample A4 at 250 pg/mL
  stable in calibrator matrix after (freeze/thaw cycles): 5 freeze/thaw cycles
[5]; first five freeze/thaw cycles
  replicates within 85-115% of the target: 100%
[5]; sixth freeze/thaw cycle
  replicates within 85-115% of the target: > 60%
